Test results as given in patent US9029389B2 (Institut Pasteur Korea, priority 2011, dated 2015).

Assays:
Human 5-lipoxygenase = molecular target: T1, Human 5-lipoxygenase (Homo sapiens, UniProt P09917); assay: Activity of compounds against 5-LO enzyme (LTB4 measurement and/or fluorescence method); type: biochemical; conditions: for inhibition at 10 µM: 5-LO, single concentration of 10 uM in duplicate; for IC50: 6 or 11 point dose response in duplicate
T1 construct: purchased Cayman 60402; host or cells: insect cells
T1 sequence (P09917 1-674): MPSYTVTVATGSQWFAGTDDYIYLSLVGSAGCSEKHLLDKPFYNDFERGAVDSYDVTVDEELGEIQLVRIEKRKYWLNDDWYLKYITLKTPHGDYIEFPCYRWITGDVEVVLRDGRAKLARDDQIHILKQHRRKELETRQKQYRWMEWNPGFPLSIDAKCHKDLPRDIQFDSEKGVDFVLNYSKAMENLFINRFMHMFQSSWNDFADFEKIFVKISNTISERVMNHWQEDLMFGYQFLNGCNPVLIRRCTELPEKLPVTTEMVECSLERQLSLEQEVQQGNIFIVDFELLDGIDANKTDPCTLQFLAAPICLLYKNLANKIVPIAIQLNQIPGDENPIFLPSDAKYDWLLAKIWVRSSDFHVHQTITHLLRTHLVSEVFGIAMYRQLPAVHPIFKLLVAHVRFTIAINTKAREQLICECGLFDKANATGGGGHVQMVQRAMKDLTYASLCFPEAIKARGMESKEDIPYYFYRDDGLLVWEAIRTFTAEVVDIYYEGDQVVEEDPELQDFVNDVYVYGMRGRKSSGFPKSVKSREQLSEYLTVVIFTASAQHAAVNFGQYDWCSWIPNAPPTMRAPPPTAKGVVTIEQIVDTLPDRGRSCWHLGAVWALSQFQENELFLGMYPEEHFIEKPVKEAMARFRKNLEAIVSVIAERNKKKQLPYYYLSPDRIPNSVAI
Summary of the method: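 Insect-cell human 5-LO preincubated 15 min at RT with compound (pH 7.4, 2 mM CaCl2, 0.1 mM ATP, 1% DMSO), then 3 uM arachidonic acid for 5 min at 37 °C; LTB4 quantified by EIA and/or LC/MS/MS. Alternatively, fluorescence of 5-HpETE via H2DCFDA, 100 uM ATP, 3 uM arachidonic acid, 5 min, RT; single 10 uM screen then 6- or 11-point IC50.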

| Compound | inhibition at 10 µM (Human 5-lipoxygenase) | melting point | IC50 (Human 5-lipoxygenase) |
| --- | --- | --- | --- |
| CCc1nc2ccc(Cl)cn2c1C(=O)NCc1ccc(N2CC(C)CC(C)C2)cc1 (stereo not shown) [compound 197, 6-Chloro-N-(4-(3,5-dimethylpiperidin-1-yl)benzyl)-2-ethylimidazo[1,2-a]pyridine-3-carboxamide] | > 69% | 157.2 to 158 °C | > 20 µM |
| CCc1nc2ccc(Cl)cn2c1C(=O)NCc1ccc(C#N)cc1 [compound 134, 6-Chloro-N-(4-cyanobenzyl)-2-ethylimidazo[1,2-a]pyridine-3-carboxamide] | < 40% | 223 to 224 °C | – |
| CCc1nc2cc(C)ccn2c1C(=O)NCc1ccc(N2CCOCC2)cc1 [compound 94, 2-Ethyl-7-methyl-N-(4-morpholinobenzyl)imidazo[1,2-a]pyridine-3-carboxamide] | < 40% | 190 °C | – |
| CCc1nc2cc(Cl)ccn2c1C(=O)NCc1ccc(N2CC(C)OC(C)C2)cc1 (stereo not shown) [compound 183, 7-Chloro-N-(4-(2,6-dimethylmorpholino)benzyl)-2-ethylimidazo[1,2-a]pyridine-3-carboxamide] | < 40% | 165 to 166 °C | – |
| CCc1nc2ccc(Cl)cn2c1C(=O)NCc1ccc(Oc2ccc(Cl)cc2)cc1 [compound 160, 6-Chloro-N-(4-(4-chlorophenoxy)benzyl)-2-ethylimidazo[1,2-a]pyridine-3-carboxamide] | 40 to 69% | 159 to 160.7 °C | – |
| CCc1nc2cc(Cl)ccn2c1C(=O)NCc1ccc(N2CCC(COC)CC2)cc1 [compound 248, 7-Chloro-2-ethyl-N-(4-(4-(methoxymethyl)piperidin-1-yl)benzyl)imidazo[1,2-a]pyridine-3-carboxamide] | < 40% | 172.5 °C | – |
| CCc1nc2cc(Cl)ccn2c1C(=O)NCc1ccc(NCc2ccc(OC(F)(F)F)cc2)cc1 [compound 215, 7-Chloro-2-ethyl-N-(4-((4-(trifluoromethoxy)benzyl)amino)benzyl)imidazo[1,2-a]pyridine-3-carboxamide] | 40 to 69% | 169.6 °C | – |
| CCc1nc2cc(Cl)ccn2c1C(=O)NCc1ccc(N2CCC(COc3ccc(F)cc3)CC2)cc1 [compound 245, 7-Chloro-2-ethyl-N-(4-(4-((4-fluorophenoxy)methyl)piperidin-1-yl)benzyl)imidazo[1,2-a]pyridine-3-carboxamide] | < 40% | 186.5 °C | – |
| CCc1nc2ccc(F)cn2c1C(=O)NCc1ccc(Oc2ccc(OC(F)(F)F)cc2)cc1 [compound 225, 2-Ethyl-6-fluoro-N-(4-(4-(trifluoromethoxy)phenoxy)benzyl)imidazo[1,2-a]pyridine-3-carboxamide] | > 69% | 133.4 °C | < 1 µM |
| CCc1nc2ccccn2c1C(=O)NCc1ccc(N2CCC(c3ccc(OC(F)(F)F)cc3)CC2)cc1 [compound 266, 2-Ethyl-N-(4-(4-(4-(trifluoromethoxy)phenyl)piperidin-1-yl)benzyl)imidazo[1,2-a]pyridine-3-carboxamide] | > 69% | 146 °C | < 1 µM |
| C=C1CCN(c2ccc(CNC(=O)c3c(CC)nc4cc(Cl)ccn34)cc2)CC1 [compound 218, 7-Chloro-2-ethyl-N-(4-(4-methylenepiperidin-1-yl)benzyl)imidazo[1,2-a]pyridine-3-carboxamide] | 40 to 69% | 168.3 °C | – |
| CCc1nc2cc(-c3ccncc3)ccn2c1C(=O)NCc1ccc(N2CCOCC2)cc1 [compound 255, 2-Ethyl-N-(4-morpholinobenzyl)-7-(pyridin-4-yl)imidazo[1,2-a]pyridine-3-carboxamide] | < 40% | 210.1 °C | – |
| CCc1nc2cc(Cl)ccn2c1C(=O)NCc1ccc(N2CCC(C(F)(F)F)CC2)cc1 [compound 234, 7-Chloro-2-ethyl-N-(4-(4-(trifluoromethyl)piperidin-1-yl)benzyl)imidazo[1,2-a]pyridine-3-carboxamide] | < 40% | 209.4 °C | – |
| CCc1nc2ccc(Cl)cn2c1C(=O)NCc1ccc(N2CCC(F)(F)CC2)cc1 [compound 235, 6-chloro-N-(4-(4,4-difluoropiperidin-1-yl)benzyl)-2-ethylimidazo[1,2-a]pyridine-3-carboxamide] | < 40% | 194.2 °C | – |
| CCc1nc2cc(N3CCN(c4ccccc4)CC3)ccn2c1C(=O)NCc1ccc(C(F)(F)F)cc1 [compound 246, 2-Ethyl-7-(4-phenylpiperazin-1-yl)-N-(4-(trifluoromethyl)benzyl)imidazo[1,2-a]pyridine-3-carboxamide] | < 40% | 235.2 °C | – |
| CCc1nc2ccc(Cl)cn2c1C(=O)NCc1ccc(N2CCC(c3ccc(F)cc3)CC2)cc1 [compound 249, 6-Chloro-2-ethyl-N-(4-(4-(4-fluorophenyl)piperidin-1-yl)benzyl)imidazo[1,2-a]pyridine-3-carboxamide] | 40 to 69% | 164 °C | – |
| CCc1nc2ccc(Cl)cn2c1C(=O)NCC1CCN(Cc2ccc(OC(F)(F)F)cc2)CC1 [compound 138, 6-Chloro-2-ethyl-N-((1-(4-(trifluoromethoxy)benzyl)piperidin-4-yl)methyl)imidazo[1,2-a]pyridine-3-carboxamide] | 40 to 69% | 171 to 172 °C | – |
| CCc1nc2ccc(Cl)cn2c1C(=O)NCc1ccc(N2CCCC2)cc1 [compound 191, 6-Chloro-2-ethyl-N-(4-(pyrrolidin-1-yl)benzyl)imidazo[1,2-a]pyridine-3-carboxamide] | < 40% | 222 to 223 °C | – |

More lines, now with the values ahead:

| inhibition at 10 µM (Human 5-lipoxygenase) | melting point | IC50 (Human 5-lipoxygenase) | Compound |
| --- | --- | --- | --- |
| 40 to 69% | 126.3 to 127.2 °C | – | CCc1nc2ccc(Cl)cn2c1C(=O)NCc1cccc(N2CCC(Oc3ccc(OC(F)(F)F)cc3)CC2)c1 [compound 360, 6-chloro-2-ethyl-N-(3-(4-(4-(trifluoromethoxy)phenoxy)piperidin-1-yl)benzyl)imidazo[1,2-a]pyridine-3-carboxamide] |
| < 40% | > 220 °C | – | CCc1nc2ccc(Cl)cn2c1C(=O)NCc1cc2cc(Cl)ccc2s1 [compound 361, 6-chloro-N-((5-chlorobenzo[b]thiophen-2-yl)methyl)-2-ethylimidazo[1,2-a]pyridine-3-carboxamide] |
| < 40% | 257.5 °C | – | CCc1nc2ccc(Cl)cn2c1C(=O)NCc1ccc(N2CCC(C(N)=O)CC2)cc1 [compound 291, N-(4-(4-Carbamoylpiperidin-1-yl)benzyl)-6-chloro-2-ethylimidazo[1,2-a]pyridine-3-carboxamide] |
| < 40% | 175.5 °C | – | CCc1nc2ccc(Cl)cn2c1C(=O)NCc1ccc(N2CCOCC2)c(Cl)c1 [compound 302, 6-Chloro-N-(3-chloro-4-morpholinobenzyl)-2-ethylimidazo[1,2-a]pyridine-3-carboxamide] |
| – | 102 °C | > 20 µM | CCc1nc2ccc(Cl)cn2c1CNc1ccc(-c2ccc(OC(F)(F)F)cc2)cc1 [compound 383, N-((6-chloro-2-ethylimidazo[1,2-a]pyridin-3-yl)methyl)-4′-(trifluoromethoxy)biphenyl-4-amine] |
| < 40% | 135.5 to 136.4 °C | – | CCc1nc2ccc(Cl)cn2c1C(=O)NCc1cccc(N2CCC(c3ccc(OC(F)(F)F)cc3)CC2)c1 [compound 354, 6-chloro-2-ethyl-N-(3-(4-(4-(trifluoromethoxy)phenyl)piperidin-1-yl)benzyl)imidazo[1,2-a]pyridine-3-carboxamide] |
| < 40% | > 142.7 °C (dec.) | – | CCc1nc2ccc(Cl)cn2c1C(=O)NCc1cccc(OCc2ccc(OC(F)(F)F)cc2)c1 [compound 353, 6-chloro-2-ethyl-N-(3-((4-(trifluoromethoxy)benzyl)oxy)benzyl)imidazo[1,2-a]pyridine-3-carboxamide] |
| > 69% | 214.6 °C | 1 to 20 µM | CCc1nc2cc(Br)ccn2c1C(=O)NCc1ccc(N2CCN(c3ccc(F)cc3)CC2)cc1 [compound 304, 7-Bromo-2-ethyl-N-(4-(4-(4-fluorophenyl)piperazin-1-yl)benzyl)imidazo[1,2-a]pyridine-3-carboxamide] |
| 40 to 69% | 173.8 °C | – | CCc1nc2ccc(OC)cn2c1C(=O)NCc1ccc(N2CCN(c3ccc(F)cc3)CC2)cc1 [compound 271, 2-Ethyl-N-(4-(4-(4-fluorophenyl)piperazin-1-yl)benzyl)-6-methoxyimidazo[1,2-a]pyridine-3-carboxamide] |
